Where two headings read alike, the source gives them in different places.
How the values were obtained:
[1] = tested on: patients with previously treated advanced NSCLC
Protocol: (§1) In the initial stage, we assessed the feasibility of intrapatient dose escalation from 150 mg per day to a maximal level of tolerable skin toxicity, which was defined as the TR. This objective was determined to be feasible if patients developed a TR in the absence of non-cutaneous dose-limiting toxicity (DLT). […] Skin toxicity was graded according to the following scale that was based on patient tolerability:
(§2) In the absence of both a TR and non-cutaneous DLT, the dose was increased in each patient to 200 mg per day, and then in 25 mg per day increments every 14 days. […] Toxicities were graded according to the National Cancer Institute Common Toxicity Criteria (NCI CTC), Version 2.0, except for skin toxicity.
Doses were reduced in 25 mg per day decrements for toxicity. The initial systemic intervention for symptomatic skin toxicity was minocycline 100–150 mg twice daily for at least 7 days, and the initiation of treatment with minocycline for symptomatic rash was at the discretion of the investigator.

[2] = tested on: patients receiving erlotinib 150 mg per day; parameters: method as in earlier work; details: ref Shepherd et al, 2005, Perez-Soler and Van Cutsem, 2007; cited from earlier work
[3] = Plasma pharmacokinetics of erlotinib and OSI-420 (HPLC, non-compartmental); details: erlotinib dose 425 mg m^−2, 1 patient;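 also: pharmacokinetic parameters derived by non-compartmental analysis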
Description: (§3) PK parameters were estimated by non-compartmental methods (WinNonlin v.3.1, Pharsight Corp., Mountain View, CA, USA).

[4] = tested on: previously treated patients with non-small cell lung cancer (NSCLC); details: cited from earlier work; for Median survival: ref Wacker et al, 2007
[5] = tested on: previously treated advanced non-small cell lung cancer (NSCLC)
Protocol: as §1, §2
Tumour assessments were performed using the Response Evaluation Criteria in Solid Tumours using computerised tomographic scanning or magnetic resonance imaging pretreatment and every 6–8 weeks during treatment ([Therasse et al, 2000]).

clinical = details: human, in vivo
Description: as §3

[6] = in vivo
Description: as §3

For `C#Cc1cccc(Nc2ncnc3cc(OCCOC)c(OCCOC)cc23)c1` [erlotinib], which “Patients with pain associated with skin toxicity” value ([1]; 10 of 42 patients) is on record?
The value was 24%.

And the “Patients with urticaria as dominant feature of rash” value ([1]; 11 of 42 patients)?
Its value is 26%.

And the “Patients in whom the rash resembled rosacea” value ([1]; 12 of 42 patients)?
The value was 29%.

What about the “Patients with desquamation as dominant feature of rash” value ([1]; 16 of 42 patients) of the same molecule?
Its value is 38%.

And the “Patients with a TR who developed it at the initial 150 mg per day dose level” value ([1]; 19 of 24 patients with TR)?
Its value is 79%.

And the “Patients who developed a target rash (TR)” value ([1]; 24 of 42 patients, TR = grade 2 tolerable rash requiring minocycline)?
Its value is 57%.

And the “Patients with pruritus associated with skin toxicity” value ([1]; 28 of 42 patients)?
Its value is 67%.

What about the “Patients who developed skin toxicity” value ([1]; 41 of 42 patients) of the same molecule?
Its value is 98%.

What about the “Patients discontinued from the study due to skin toxicity” value ([1]; 42 patients) of the same molecule?
The value was “No patient”.

What about the “Initial patients (first stage) who developed a TR” value ([1]; first stage of the study) of the same molecule?
Its value is 10 of the 11 initial patients.

And the “Patients with a TR who experienced it only after dose escalation” value ([1]; five of 24 patients with TR)?
Its value is 21%.

And the “Patients who experienced a grade 3 rash” value ([1]; of 42 patients)?
The value was “Six”.

What about the “Dosing range above which erlotinib doses could not be increased in most patients” value ([1]; principally due to intolerable skin toxicity despite supportive measures) of the same molecule?
Its value is 250–300 mg per day.

What about the “Patients with a TR who developed it following escalation to 200 mg per day” value ([1]; three of 24 patients with TR) of the same molecule?
Its value is 13%.

And the “Patients with a TR who developed it following escalation to 225 mg per day” value ([1]; two of 24 patients with TR)?
Its value is 8%.

What about the “Patients who developed NCI CTC grade 2 or 3 rash” value [2] of the same molecule?
The value was ~30%.

What about the “Erlotinib Tmax” value [3] of the same molecule?
Its value is 4.0 h.

What about the “Median PFS” value ([4]; BR.21 study, 95% CI: 1.9–2.9 months, ref Shepherd et al, 2005) of the same molecule?
Its value is 2.2 months.

What about the ORR ([4]; BR.21 study, 95% CI: 6.4–12%, ref Shepherd et al, 2005) of the same molecule?
Its ORR is 8.9%.

And the Median survival ([4]; erlotinib-treated patients who did not experience skin toxicity)?
The Median survival was 3 months.

What about the Median survival ([4]; erlotinib-treated patients with grade 1 skin toxicity) of the same molecule?
Its Median survival is 7 months.

And the Median survival ([4]; erlotinib-treated patients with grade 2/3 skin toxicity)?
The Median survival was 11 months.

What about the “Disease control (CR+PR+SD): No. of patients with CR+PR+s.d./total no. of patients” value ([5]; All patients) of the same molecule?
The value was 24/42.

What about the “Disease control (CR+PR+SD): Response rate (95% CI)” value ([5]; All patients) of the same molecule?
Its value is 57.1 (41.0, 72.3).

What about the “Objective responses (CR+PR): No. of patients with PR+CR/total no. of patients” value ([5]; All patients) of the same molecule?
Its value is 5/42.

What about the “Objective responses (CR+PR): Response rate (95% CI)” value (from here on “Objective responses … (95% CI)”) ([5]; All patients) of the same molecule?
Its value is 11.9 (4.0, 25.6).

What about the “Disease control (CR+PR+SD): No. of patients with CR+PR+s.d./total no. of patients” value ([5]; Target rash feasible) of the same molecule?
The value was 15/24.

And the “Disease control (CR+PR+SD): Response rate (95% CI)” value ([5]; Target rash feasible)?
Its value is 62.5 (40.6, 81.2).

And the “Objective responses (CR+PR): No. of patients with PR+CR/total no. of patients” value ([5]; Target rash feasible)?
The value was 5/24.

And the “Objective responses … (95% CI)” value ([5]; Target rash feasible)?
Its value is 20.8 (7.1, 42.2).

And the “Disease control (CR+PR+SD): No. of patients with CR+PR+s.d./total no. of patients” value ([5]; Target rash not feasible)?
Its value is 9/18.

And the “Disease control (CR+PR+SD): Response rate (95% CI)” value ([5]; Target rash not feasible)?
Its value is 50.0 (26.0, 74.0).

What about the “Objective responses (CR+PR): No. of patients with PR+CR/total no. of patients” value ([5]; Target rash not feasible) of the same molecule?
The value was 0/18.

And the “Objective responses … (95% CI)” value ([5]; Target rash not feasible)?
Its value is 0.0 (N/A).

And the “Median progression-free survival (PFS)” value ([5]; all patients, 95% CI: 1.61–4.14)?
The value was 2.3 months.

What about the “Patients with a partial response (PR)” value ([5]; five of 42 patients, 95% CI: 4.0–25.6) of the same molecule?
Its value is 12%.

And the “Median time to initial response” value ([5]; five patients with PR, range, 5–76)?
The value was 6 weeks.

What about the “Patients with stable disease” value ([5]; nineteen of 42 patients) of the same molecule?
Its value is 45%.

What about the “Median PFS” value ([5]; patients who did not experience a TR, 95% CI: 1.54, 4.14) of the same molecule?
Its value is 1.9 months.

And the “Median PFS” value ([5]; patients who experienced a TR, 95% CI: 1.61, 6.97)?
The value was 3.5 months.

What about the “Reduction in the risk of disease progression or death” value ([5]; patients who had TR) of the same molecule?
Its value is 49%.

What about the PFS ([5]; patients with PR as best response, range, 5.2 to 66+) of the same molecule?
The PFS was 12 months.

What about the PFS ([5]; patients with SD as best response, range, 1.2–14.0) of the same molecule?
The PFS was 4.7 months.

What about the PFS ([5]; patients with progressive disease as best response, range, 1.2–1.9) of the same molecule?
Its PFS is 1.4 months.

And the Cmax (clinical; 150 mg)?
The Cmax was 1910 ng/mL.

And the Tmax (clinical; 150 mg)?
Its Tmax is 2 h.

What about the Cmax (clinical; 200 mg) of the same molecule?
The Cmax was 2650 ng/mL.

And the Tmax (clinical; 200 mg)?
The Tmax was 2 h.

What about the Cmax (clinical; 225 mg) of the same molecule?
Its Cmax is 2540 ng/mL.

What about the Tmax (clinical; 225 mg) of the same molecule?
Its Tmax is 2 h.

What about the Cmax (clinical; 250 mg) of the same molecule?
Its Cmax is 2820 ng/mL.

What about the Tmax (clinical; 250 mg) of the same molecule?
The Tmax was 2.1 h.

And the Cmax (clinical; 275 mg)?
The Cmax was 2190 ng/mL.

And the Tmax (clinical; 275 mg)?
Its Tmax is 1 h.

And the Cmax (clinical; 300 mg)?
The Cmax was 2940 ng/mL.

What about the Tmax (clinical; 300 mg) of the same molecule?
The Tmax was 2 h.

And the Cmax (clinical; 325 mg)?
Its Cmax is 2800 ng/mL.

What about the Cmax (clinical; 350 mg) of the same molecule?
The Cmax was 1780 ng/mL.

What about the Tmax (clinical; 350 mg) of the same molecule?
Its Tmax is 3.5 h.

And the Cmax (clinical; 375 mg)?
Its Cmax is 2770 ng/mL.

What about the Tmax (clinical; 375 mg) of the same molecule?
The Tmax was 1 h.

And the Tmax (clinical; 400 mg)?
The Tmax was 2 h.

And the Cmax (clinical; 425 mg)?
Its Cmax is 2780 ng/mL.

And the Cmax (clinical; 450 mg)?
The Cmax was 4100 ng/mL.

And the Tmax (clinical; 450 mg)?
Its Tmax is 8 h.

And the Cmax (clinical; 475 mg)?
Its Cmax is 2200 ng/mL.

And the Tmax (clinical; 475 mg)?
The Tmax was 4.2 h.

What about the “Relationships between dose and both AUC0–24 and Cmax (Spearman rank correlation)” value ([6]; human) of the same molecule?
The value was “did not reveal any significant deviation from dose proportionality”.

What about the “Interpatient and intrapatient variability of PK” value [6] of the same molecule?
The value was “High”.

Source: paper PMC3185947 (British Journal of Cancer, 2011)
